Test results from patent publication US20200109126A1 (priority 2017, published 2020).

Columns and labels:
[1] = Pharmacokinetics of PZM21 (serum and brain); assay type: in vivo, mouse; conditions: 20 mg/kg subcutaneous
Method: Studies were performed by the Preclinical Therapeutics Core and the Drug Studies Unit at the University of California San Francisco.

μOR [2] = molecular target: T1, μOR (Homo sapiens, UniProt P35372); test: β-arrestin recruitment at μOR with GRK2 co-expression; assay type: cell-based
δOR = molecular target: T2, δOR (Homo sapiens, UniProt P41143); test: Gi/o Glosensor assay at δOR; assay type: cell-based; conditions: ND = not detectable
T2 construct: NIMH Psychoactive Drug Screening Program (PDSP)

κOR = molecular target: T3, κOR (Homo sapiens, UniProt P41145); test: Gi/o Glosensor assay at κOR; assay type: cell-based
T3 construct: NIMH Psychoactive Drug Screening Program (PDSP)

μOR [3] = molecular target: T1, μOR; test: biochemical; assay type: binding; design: expressed in transfected cells; host or cells: HEK293 membranes (Ki); Sf9 insect cell membranes (single-point screen); PDSP for analogs
Method: For a primary screen of selected molecules, binding to OR was assessed by measuring competition against the radioligand ^3H-diprenorphine (^3H-DPN). […] The reaction contained 40 fmol of μOR and was incubated in a buffer of 20 mM HEPES pH 7.5, 100 mM sodium chloride, and 0.1% bovine serum albumin for 1 hour at 25° C. To separate free from bound radioligand, reactions were rapidly filtered over Whatman GF/B filters with the aid of a Brandel harvester and ^3H-DPN counts were measured by liquid scintillation.

C57BL/6J mice = test: Formalin injection assay; conditions: PZM21 40 mg/kg
Method: Analgesia to formalin injection was carried out as described previously^66. Mice were first habituated for 20 minutes to the testing environment which included a home cage without bedding, food, and water. […] This was followed by injection of 20 μL of 1% formalin in 0.9% saline under the skin of the dorsal surface of the right hindpaw. Animals were returned to their home cage and behavioral responses were recorded for one hour. Nociception was estimated by measuring the cumulative time spent by animals licking the formalin-injected paw. As opioids classically display two phases of analgesic action, nociceptive behavior was measured during both the early phase (0 to 5 minutes) and the late phase (20 to 30 minutes).

μOR [4] = molecular target: T1, μOR; test: β-arrestin recruitment at μOR without GRK2; assay type: cell-based
μOR [5] = molecular target: T1, μOR; test: Calcium release (FLIPR); assay type: cell-based; design: expressed in transfected cells
Method: Calcium release was measured using a FLIPR^TETRA fluorescence imaging plate reader (Molecular Devices). Calcium release experiments were run in parallel to Gi/o Glosensor experiments with the same HEKT cells transfected with μOR, except cells for FLIPR were plated in poly-lysine coated 384-well black clear bottom cell culture plates. Cells were incubated at 37° C. with 5% CO2 overnight, and next day, media was decanted and replaced with Fluo-4 direct calcium dye (Life Technologies) made up in HBSS with 20 mM HEPES, pH 7.4. Dye was incubated for 1 hour at 37° C. Afterwards, cells were equilibrated to room temperature, and fluorescence in each well was read for the initial 10 seconds to establish a baseline. Afterwards, 10 μL of drug (3×) was added per well and the maximum-fold increase in fluorescence was determined as fold-over-baseline. Drug solutions used for the FLIPR assay were exactly the same as used for Gi/o Glosensor experiments. To activate endogenous Gq-coupled receptors as a positive control for calcium release, TFLLR-NH2 (10 μM, PAR-1 selective agonist) was used.

hERG ion channel = hERG ion channel (Homo sapiens, UniProt Q12809); test: Inhibition of hERG channel; assay type: biochemical
μOR [6] = molecular target: T1, μOR; test: cell-based; assay type: cell-based

T1 sequence (P35372 whole entry): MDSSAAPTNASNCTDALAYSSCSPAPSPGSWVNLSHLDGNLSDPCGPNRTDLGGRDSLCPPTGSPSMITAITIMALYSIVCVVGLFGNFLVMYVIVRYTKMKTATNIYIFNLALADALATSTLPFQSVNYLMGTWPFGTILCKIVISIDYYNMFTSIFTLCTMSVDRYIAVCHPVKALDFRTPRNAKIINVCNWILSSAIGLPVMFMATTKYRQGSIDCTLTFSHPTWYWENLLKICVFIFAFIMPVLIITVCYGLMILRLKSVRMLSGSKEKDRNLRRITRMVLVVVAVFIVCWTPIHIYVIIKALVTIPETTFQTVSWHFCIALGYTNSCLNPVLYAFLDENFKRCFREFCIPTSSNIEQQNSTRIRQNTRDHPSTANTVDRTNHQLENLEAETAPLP
T3 sequence (P41145 whole entry): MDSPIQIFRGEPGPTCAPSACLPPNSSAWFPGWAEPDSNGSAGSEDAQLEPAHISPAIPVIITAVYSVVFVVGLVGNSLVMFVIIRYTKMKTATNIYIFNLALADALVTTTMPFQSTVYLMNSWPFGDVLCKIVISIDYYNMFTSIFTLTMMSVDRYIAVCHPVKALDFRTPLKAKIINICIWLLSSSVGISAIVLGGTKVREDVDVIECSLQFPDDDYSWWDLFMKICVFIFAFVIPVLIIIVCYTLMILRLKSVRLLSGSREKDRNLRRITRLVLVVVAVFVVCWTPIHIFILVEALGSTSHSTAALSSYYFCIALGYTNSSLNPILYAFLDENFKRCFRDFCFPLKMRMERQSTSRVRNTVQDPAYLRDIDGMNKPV
hERG ion channel, sequence (Q12809 whole entry): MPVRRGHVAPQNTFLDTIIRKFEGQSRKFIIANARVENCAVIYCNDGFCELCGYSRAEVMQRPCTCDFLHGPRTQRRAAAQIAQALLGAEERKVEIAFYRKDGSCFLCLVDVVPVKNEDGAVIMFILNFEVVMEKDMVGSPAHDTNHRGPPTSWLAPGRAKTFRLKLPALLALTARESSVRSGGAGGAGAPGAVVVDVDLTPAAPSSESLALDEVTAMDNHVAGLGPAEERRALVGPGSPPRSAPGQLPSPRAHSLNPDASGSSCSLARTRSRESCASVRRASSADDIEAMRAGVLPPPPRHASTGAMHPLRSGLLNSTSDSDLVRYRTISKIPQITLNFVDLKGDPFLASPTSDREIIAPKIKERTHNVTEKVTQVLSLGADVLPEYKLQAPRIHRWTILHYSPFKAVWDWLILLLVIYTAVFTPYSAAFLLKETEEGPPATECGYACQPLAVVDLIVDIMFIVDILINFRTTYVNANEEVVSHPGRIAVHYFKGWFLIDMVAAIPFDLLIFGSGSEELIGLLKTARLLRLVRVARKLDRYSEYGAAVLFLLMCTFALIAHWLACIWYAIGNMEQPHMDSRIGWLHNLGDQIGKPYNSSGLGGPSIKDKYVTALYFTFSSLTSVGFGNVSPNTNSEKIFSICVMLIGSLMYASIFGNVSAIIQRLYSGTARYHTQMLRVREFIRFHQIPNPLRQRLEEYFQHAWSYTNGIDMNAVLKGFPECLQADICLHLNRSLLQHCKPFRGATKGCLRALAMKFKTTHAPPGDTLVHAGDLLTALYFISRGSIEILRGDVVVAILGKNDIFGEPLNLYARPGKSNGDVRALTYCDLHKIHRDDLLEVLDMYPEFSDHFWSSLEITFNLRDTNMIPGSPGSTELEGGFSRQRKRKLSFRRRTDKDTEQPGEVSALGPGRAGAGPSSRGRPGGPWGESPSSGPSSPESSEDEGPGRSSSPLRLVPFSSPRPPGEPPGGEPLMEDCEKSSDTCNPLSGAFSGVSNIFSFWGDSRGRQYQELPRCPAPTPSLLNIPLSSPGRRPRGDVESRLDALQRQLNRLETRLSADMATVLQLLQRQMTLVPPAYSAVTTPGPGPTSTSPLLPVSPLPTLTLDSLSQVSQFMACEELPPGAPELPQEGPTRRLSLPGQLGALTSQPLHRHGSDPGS
T2 sequence (P41143 whole entry): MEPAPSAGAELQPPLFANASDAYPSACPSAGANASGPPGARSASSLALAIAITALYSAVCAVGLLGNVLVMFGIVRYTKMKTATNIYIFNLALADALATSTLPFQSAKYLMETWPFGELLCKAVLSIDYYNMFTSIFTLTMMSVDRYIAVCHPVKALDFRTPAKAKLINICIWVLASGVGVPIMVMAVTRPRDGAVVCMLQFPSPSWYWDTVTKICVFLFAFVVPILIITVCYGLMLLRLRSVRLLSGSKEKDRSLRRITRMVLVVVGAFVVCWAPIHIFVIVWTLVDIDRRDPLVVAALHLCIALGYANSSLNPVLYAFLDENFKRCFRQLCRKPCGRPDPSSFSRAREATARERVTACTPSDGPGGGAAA

C[C@@H](Cc1ccsc1)NC(=O)NC[C@H](Cc1ccc(O)cc1)N(C)C [PZM21, 1-[(S)-2-(Dimethylamino)-3-(4-hydroxyphenyl)propyl]-3-((S)-1-(thiophen-3-yl)propan-2-yl)urea]
blood brain barrier penetration [1]: substantial fraction of PZM21 crosses the blood brain barrier
arrestin recruitment with over-expressed GRK2 (in words) (μOR [2]): weak arrestin recruitment efficacy compared to DAMGO and even to morphine
signaling bias (μOR [2]; operational model, DAMGO as reference): undistinguishable from TRV130
EC50 (δOR): 1900 nM
KOR agonist activity (in words) (κOR): no detectable
mode of action at KOR (κOR; antagonist mode): antagonist
optimization from initial docking hit compound 7 (μOR [3]): 1000 fold
improvement versus 12 (μOR [3]; Ki and EC50 of (S,S)-21 against compound 12): 40 fold
activity in formalin injection nociception assay (C57BL/6J mice): active
Arrestin Emax % DAMGO (μOR [4]): 15 % DAMGO
β-arrestin2 recruitment in the absence of GRK2 (in words) (μOR [4]): no β-arrestin2 recruitment
calcium release (μOR [5]): no activity was observed
IC50 (hERG ion channel): 2 to 4 µM
Gi/o activation, μOR agonist activity (in words) (μOR [6]): robust μOR agonist activity
